Test [1] relates to PCLSs prepared from bleomycin-challenged mouse lungs. The experiment in a line: Col1a1 expression in PCLSs from bleomycin-challenged mouse lungs. It is filed as cell-based. An excerpt: PCLSs were generated from explanted lung tissue from patients with IPF and cultured as previously described. Mouse PCLSs were generated and cultured as previously described. Messenger ribonucleic acid (mRNA) levels in lysates prepared from snap-frozen tissue slices were quantified via NanoString PlexSet reagents and nCounter SPRINT Profiler (NanoString; Seattle, WA, USA; Additional file 1: Table S2) or TaqMan primers/probes on a Bio-Rad CFX96 thermocycler (Bio-Rad; Hercules, CA, USA; Additional file 1: Table S3).
Mouse PCLSs were generated and cultured based on previously reported methods (E13). Briefly, mice were challenged with bleomycin (Hospira; Lake Forest, IL, USA or Teva; Toronto, ON, Canada), either acutely with a single dose (3 U/kg or 4 U/kg) or chronically with multiple doses (3 U/kg bleomycin followed by four 1 U/kg challenges at 2-week intervals). Fourteen days after the final bleomycin challenge, lungs were harvested and 200 μm-thick slices were cut using a Compresstome VF-300-0Z (Precisionary Instruments).
Slices from each individual core (human) or mouse were distributed among the treatment groups to control for variability in the fibrotic injury within the tissue. […] After 3 or 7 days in culture, slices were washed and snap-frozen. Viability of sentinel slices on Days 0/1 and 3/7 was determined using WST-1 Cell Proliferation Reagent (Sigma 5015944001; St Louis, MO, USA).
For all figures (except Fig. 2B, Fig. S2, and Fig. S4), snap-frozen tissue slices were incubated in one-third RLT buffer (Qiagen #79216; Venlo, Netherlands) supplemented with 2 mg/ml proteinase K (Sigma-Aldrich #3115887001; St Louis, MO, USA) at 55 °C for 2 h 45 min, with periodic vortexing to generate ribonucleic acid (RNA)-compatible tissue lysate. This lysate was incubated overnight with probes from a custom fibrosis gene panel and NanoString PlexSet reagents (Table S2). The following day, samples were analyzed on a NanoString nCounter SPRINT Profiler (NanoString; Seattle, WA, USA). Messenger RNA (mRNA) counts were normalized to housekeeping genes (GUSB, HPRT1, RPLP0, and/or POLR1B) and total mRNA counts, relative to vehicle-treated control from the same experiment, are reported.
For Figs. 2B, S2, and S4, RNA purification and qPCR were performed by Transcriptic, Inc. (Menlo Park, CA, USA) using a proprietary automated protocol. Briefly, RNA was purified on a KingFisher Flex system (Thermo Fisher) and qPCR was performed on a Bio-Rad CFX96 (Bio-Rad; Hercules, CA, USA) with TaqMan primers/probes (Thermo Fisher) listed in Table S3. Ct values were normalized to housekeeping genes (Rn18sRn45s and Hprt) and reported as ddCT and fold change versus the vehicle-treated samples.

The subject of test [2] is bleomycin-challenged C57BL/6 mice. The experiment in a line: In vivo bleomycin mouse model of pulmonary fibrosis. The following applies: Day 7 to Day 21 after bleomycin. The protocol:
C57BL/6 mice (Charles River; Hollister, CA, USA) were administered 3 units/kg bleomycin (Teva; Toronto, ON, Canada) or vehicle (water) via oropharyngeal aspiration. Lung tissue and bronchioalveolar lavage (BAL) cells were collected after 14 or 21 days to evaluate Smad phosphorylation and collagen deposition.
OHP levels and fractional synthesis rates were determined similar to that previously described.
Formalin-fixed, paraffin-embedded mouse lung tissue sections underwent SHG imaging to characterize the quantity and quality of fibrillar collagen deposition using methods similar to that previously described.
For pSmad3 and total Smad3 quantitation, lung tissues or bronchoalveolar lavage (BAL) cells were lysed in RIPA buffer with protease inhibitor cocktail (Thermo Fisher; #78442). Total protein concentration was normalized across lysates following quantitation by bicinchoninic acid protein assay (Thermo Fisher; #23225). MSD GOLD 96 Small Spot Streptavidin plates were rinsed with PBST, followed by incubation with 1 µg/ml of biotinylated anti-Smad2/3 antibody under agitation for 1 h. Following a second rinse, a 50:50 mix of unknown sample and PBST was added to duplicate wells. Following a 1 h incubation and another rinse, 1 µg/ml of sulfo-tag-labeled anti-pSmad3 or anti-Smad3 antibody was added and incubated for 1 h under agitation. After a final rinse, 1x read buffer was added and the plate was read using an MSD sector imager instrument (SECTOR S 600). pSmad3/Smad3 signal ratios were compared across time points to calculate fold changes.
Male, 8-week-old C57BL/6 mice (Charles River; Hollister, CA, USA) were administered 3 U/kg bleomycin (Teva) or vehicle (water) via oropharyngeal aspiration while under anesthesia (ketamine/xylazine). […] Total lung weights were recorded, and right lobes were snap-frozen and stored at -80 °C. […]
OHP levels in mouse lung tissue were determined similar to that previously described (E15) using the QuickZyme hydroxyproline assay kit (QuickZyme Biosciences; Leiden, Netherlands). […] Hydrolysate was adjusted to 4 M HCl and analyzed for OHP concentrations in a 96-well format, according to manufacturer’s instruction. Absorbance was read at 570 nm with an Infinite M200 PRO microtiter plate reader (Tecan; Crailsheim, Germany) and total lung OHP levels calculated from OHP concentrations (µg OHP/mg tissue) by normalizing to total lung weight. […]
Formalin-fixed paraffin embedded sections prepared from mouse lung tissue underwent SHG imaging to characterize both the quantity and quality of fibrillar collagen deposition using methods similar to that previously described (E16). […]

On to `COCCN(CCCCc1ccc2c(n1)NCCC2)CC[C@H](Nc1ncnc2ccccc12)C(=O)O` [PLN-74809], for which the “lowest concentration with significant reduction of Col1a1 mRNA expression” value in test [1] (3 days of treatment (Fig. S2)) is given as 16 nM. Moreover, the “reduction of Col1a1 mRNA expression” value in test [1] (3 days of treatment, dose titration (Fig. S2)) is recorded as “up to 71%”. In addition, the IC50 in test [1] (Mus musculus, 72 h, 3 days of treatment, extrapolation from dose-response curve of combined experiments (Fig. S4), read-out: minimum concentration required to reduce Col1a1 mRNA levels by 50%) is 172 nM. Besides, the “inhibition of collagen mRNA expression” value in test [1] (acutely injured mouse lungs, 3 days, PLN-74809 200 nM, GSK3008348 1000 nM, CWHM-12 1000 nM (Fig. 2B)) is given as “virtually the same degree as less selective multi-αv integrin inhibitors”. For the same molecule, the “effect on Col1a1 gene expression” value in test [1] (chronic bleomycin-challenged mouse lungs, 7 days of treatment, nintedanib and pirfenidone at approximate clinical Cmax (Fig. 6C)) is recorded as “significantly reduced”. Besides, the “effect on Col1a1 mRNA expression” value in test [1] (chronic bleomycin-challenged mouse lungs, 7 days, Compound A 471 nM, 3G9 0.5 µg/ml, PLN-74809 1.82 µM (Fig. 2A)) is “effective at significantly reducing”. In test [2] (oral 100, 250, 500 mg/kg BID), the “Smad3 phosphorylation in lung tissue” value is listed as “dose-dependently blocked”. Besides, the “interstitial fibrillar collagen deposition (SHG imaging)” value in test [2] (oral 100, 250, 500 mg/kg BID, vs vehicle) is listed as “dose-dependent, significant reduction”. In test [2] (oral 100-500 mg/kg BID, vs vehicle (Fig. S3A)), the “total pulmonary hydroxyproline levels” value was “dose-dependently reduced”. Further, the “hydroxyproline deposition rate (2H incorporation)” value in test [2] (oral 100-500 mg/kg BID, vs vehicle (Fig. S3B)) was “dose-dependently reduced”.

The values are drawn from article PMC8524858, “Dual inhibition of αvβ6 and αvβ1 reduces fibrogenesis in lung tissue explants from patients with IPF” (Respiratory Research, 2021).
